Several values for one entry are separate records, joined by “and”; a condition that tells them apart may be missing. Equal entries are not always repeated.
Key:
GST tagged PIP4KtypeIIB = target: T1, GST tagged PIP4KtypeIIB (Homo sapiens, UniProt P78356); assay: Trans-FI P kinase assay PIP4K2B (PIP4KtypeIIB inhibition assay); format: biochemical; conditions: Table 4; compounds listed under IC50 range headings; 100 uM GTP, 5 nM PIP4KIIB; read-out: Trans-FI P kinase assays: PIP4K2B IC50
T1 construct: made in house; host or cells: E. coli
T1 sequence (P78356 1-416): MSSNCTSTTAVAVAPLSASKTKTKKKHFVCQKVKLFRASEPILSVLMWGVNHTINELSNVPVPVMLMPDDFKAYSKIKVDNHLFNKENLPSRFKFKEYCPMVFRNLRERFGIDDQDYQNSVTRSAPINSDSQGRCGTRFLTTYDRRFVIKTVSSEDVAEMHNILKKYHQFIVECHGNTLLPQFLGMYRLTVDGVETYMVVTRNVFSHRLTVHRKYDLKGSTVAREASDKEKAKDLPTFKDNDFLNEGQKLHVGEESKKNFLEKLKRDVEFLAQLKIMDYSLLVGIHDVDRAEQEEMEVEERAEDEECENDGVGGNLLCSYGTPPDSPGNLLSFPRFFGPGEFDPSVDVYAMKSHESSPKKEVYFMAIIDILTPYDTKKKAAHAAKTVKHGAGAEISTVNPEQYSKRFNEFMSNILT
Summary of the method: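 Transcreener FI fluorescence, converted to GDP by calibration, tracked product from 5 nM E. coli-expressed GST-PIP4KIIB acting on 80 uM PI5P (DOPE carrier) with 100 uM GTP. Compound (top 4.8 uM final, 5% DMSO) was preincubated 1 h at 27 C before the 2 h reaction; IC50 fitted from residual activity.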

GST tagged PIP4KtypeIIA = target: T2, GST tagged PIP4KtypeIIA (Homo sapiens, UniProt P48426); assay: ADP-glo kinase assay PIP4K 2A (PIP4KtypeIIA inhibition assay); format: biochemical; conditions: Table 3; compounds listed under IC50 range headings; 10 uM ATP, 0.5 nM PIP4KIIA
T2 construct: made in house; host or cells: E. coli
T2 sequence (P48426 1-406): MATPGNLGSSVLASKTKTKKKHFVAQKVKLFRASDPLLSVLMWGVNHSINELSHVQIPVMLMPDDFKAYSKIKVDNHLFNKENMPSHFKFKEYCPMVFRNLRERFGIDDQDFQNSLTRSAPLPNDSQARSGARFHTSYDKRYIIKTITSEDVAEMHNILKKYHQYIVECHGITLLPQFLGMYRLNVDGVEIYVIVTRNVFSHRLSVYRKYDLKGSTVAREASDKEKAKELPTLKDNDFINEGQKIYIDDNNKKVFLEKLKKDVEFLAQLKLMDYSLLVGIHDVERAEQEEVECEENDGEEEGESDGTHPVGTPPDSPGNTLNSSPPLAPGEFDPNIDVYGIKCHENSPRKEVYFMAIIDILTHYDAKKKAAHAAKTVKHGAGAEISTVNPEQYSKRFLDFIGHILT
From the text: GST tagged PIP4KtypeIIA and B enzymes were overexpressed in E. Coli and purified to >80% homogeneity. Phosphatidyl inositol-5-phosphate (PI5P, Cat. #850152, Avanti Polar Lipids Inc.) was used as the lipid substrate and phosphatidyl ethanolamine (DOPE 18:1, Cat. #850725, Avanti Polar Lipids Inc.) was used as the carrier lipid for assays. Ultrapure ATP and GTP was purchased from Bellbrooke Labs. ADP Glo reagents were obtained from Promega. Transcreener FI reagent was obtained from Bellbrooke labs.
1. HEPES buffer mix: 200 mM HEPES pH 7.4, 50 mM MgCl2, 0.05% v/v triton×100
2. HNE buffer: 20 mM HEPES, pH 7.4, 100 mM NaCl, 0.5 mM EGTA
3. H:E buffer: 30 mM HEPES, pH 7.4, 1 mM EGTA
Enzyme preparation: GST-tagged PIP4KtypeIIA (5 uL, 1.43 mg/mL) was diluted (1:10) to 50 uL using HNE buffer. From the 1:10 diluted stock, a 6.4 uL aliquot was diluted further to 5 mL using HNE buffer to yield 5× enzyme stock (2.5 nM).
Lipid Preparation: In a 10 mL pyrex glass vial, lug of PI5P and lug of DOPE were suspended in 2.5 mL of HEPES buffer mix and 2.5 mL of H:E buffer. The contents were mixed and sonicated for 3 min to yield a translucent lipid stock.
Compound Preparation: Compounds were stored as 5 mM stocks in neat DMSO as room temperature in glass vials. 5 mM stocks were diluted to 2 mM and then serially diluted (3×) in neat DMSO in 96 well polypropylene plates. From the serially diluted stocks, 3 uL was delivered into 250 uL of 25% DMSO (in water) to generate 5× compound stocks. Typically, the highest compound conc. was 24 uM.
The assay volume was kept at 25 uL. To each well of the reaction plate, 10 uL of lipid stock (1:1 ratio PI5P:DOPE) was delivered. This was followed by the addition of 5 uL of compound in 25% DMSO. Then, to each well, 5 uL of 2.5 nM (5×) typeIIA enzyme was delivered. The contents were mixed well and incubated for 1 h at 27 C. After 1 h, reaction was initiated by adding 5 uL of 50 uM ATP and the contents were mixed well with a multi-channel pipetteman. The final concentration of the reagents are as follows: 50 mM HEPES, pH 7.3, 10 mM MgCl2, 20 mM NaCl, 0.01% v/v triton-X100, 5% DMSO, 10 uM ATP, 80 uM (2 ug) PI5P, 2 ug DOPE, and 0.5 nM PIP4KIIA. Typically, the highest conc. of compounds was 4.8 uM and the lowest conc. was 0.
After 1 hr, the reaction was quenched by adding 25 uL of ADP Glo reagent. The contents were incubated for 1 hr. Afterwards, 50 uL of kinase detection reagent was delivered. The contents were incubated for another hour. The luminescence was read using Molecular Devices Paradigm plate reader. […] The blanks were averaged and subtracted from all other wells. Using a calibration curve, RLU was converted to uM ADP (product). IC50 was calculated by plotting the residual activity (expressed as % No inhibitor control) vs. log [Inh. conc.]

Compound | IC50 (GST tagged PIP4KtypeIIB) | IC50 (GST tagged PIP4KtypeIIA) [nM]
O=C(Nc1ccc(-c2cncc(-c3ccnc4[nH]ncc34)c2)cc1)c1cc(C2CCC2)on1 [Example 205, N-(4-(5-(1H-pyrazolo[3,4-b]pyridin-4-yl)pyridin-3-yl)phenyl)-5-cyclobutylisoxazole-3-carboxamide] | 100 to 1000 nM and > 5000 nM | > 5000
O=C(c1cc2c(-c3cncc(-c4ccc(N5CCCC5=O)cc4)c3)ccnc2[nH]1)N1CCOCC1 [Example 229, 1-(4-(5-(2-(morpholine-4-carbonyl)-1H-pyrrolo[2,3-b]pyridin-4-yl)pyridin-3-yl)phenyl)pyrrolidin-2-one] | 100 to 1000 nM | 100 to 1000
CN(C)C(=O)c1ccc(-c2cc(-c3ccnc4[nH]c(C(=O)NC5CCOCC5)cc34)cnc2N)nc1 [Example 137, 4-(2′-amino-5-(dimethylcarbamoyl)-[2,3′-bipyridin]-5′-yl)-N-(tetrahydro-2H-pyran-4-yl)-1H-pyrrolo[2,3-b]pyridine-2-carboxamide] | 10 to 100 nM | 100 to 1000
O=C(NCCc1ccncc1)c1cc2c(-c3cncc(-c4ccc(N5CCCC5=O)cc4)c3)ccnc2[nH]1 [Example 247, 4-(5-(4-(2-oxopyrrolidin-1-yl)phenyl)pyridin-3-yl)-N-(2-(pyridin-4-yl)ethyl)-1H-pyrrolo[2,3-b]pyridine-2-carboxamide] | 10 to 100 nM | 100 to 1000
COCCNC(=O)c1cc2c(-c3cncc(-c4ccc(N5CCCC5=O)cc4)c3)ccnc2[nH]1 [Example 228, N-(2-methoxyethyl)-4-(5-(4-(2-oxopyrrolidin-1-yl)phenyl)pyridin-3-yl)-1H-pyrrolo[2,3-b]pyridine-2-carboxamide] | 10 to 100 nM | 100 to 1000
Cc1c(-c2ccc(N3CCCC3=O)cc2)cncc1-c1cn(C)c2ncc([C@H](C)O)cc12 (single isomer, unassigned) [196(S)] | 100 to 1000 nM | 100 to 1000
COC(=O)c1cc2c(-c3cncc(-c4ccc(N5CCCC5=O)cn4)c3)ccnc2[nH]1 [Example 248, methyl 4-(5-(2-oxopyrrolidin-1-yl)-[2,3′-bipyridin]-5′-yl)-1H-pyrrolo[2,3-b]pyridine-2-carboxylate] | 100 to 1000 nM | 1000 to 2500
O=C(NCc1nc2ccccc2o1)c1cc2c(-c3cncc(-c4ccc(N5CCCC5=O)cc4)c3)ccnc2[nH]1 [Example 245, N-(benzo[d]oxazol-2-ylmethyl)-4-(5-(4-(2-oxopyrrolidin-1-yl)phenyl)pyridin-3-yl)-1H-pyrrolo[2,3-b]pyridine-2-carboxamide] | 10 to 100 nM | > 5000
O=C(c1cc2c(-c3cncc(-c4ccc(N5CCCC5=O)cc4)c3)ccnc2[nH]1)N1CCCC1 [Example 235, 1-(4-(5-(2-(pyrrolidine-1-carbonyl)-1H-pyrrolo[2,3-b]pyridin-4-yl)pyridin-3-yl)phenyl)pyrrolidin-2-one] | 100 to 1000 nM | 100 to 1000
Cc1cccc2c1CC(=O)N2c1ccc(-c2cncc(-c3ccnc4c3cc3n4CCN(C)C3=O)c2)cc1 [Example 208, 7-methyl-4-(5-(4-(4-methyl-2-oxoindolin-1-yl)phenyl)pyridin-3-yl)-8,9-dihydropyrido[3′,2′:4,5]pyrrolo[1,2-a]pyrazin-6(7H)-one] | > 5000 nM | > 5000
CN(C)C(=O)c1ccc(-c2cc(-c3ccnc4[nH]c(C(=O)N5CCS(=O)(=O)CC5)cc34)cnc2N)nc1 [Example 142, 2′-amino-5′-(2-(1,1-dioxidothiomorpholine-4-carbonyl)-1H-pyrrolo[2,3-b]pyridin-4-yl)-N,N-dimethyl-[2,3′-bipyridine]-5-carboxamide] | 100 to 1000 nM | 100 to 1000

Other lines, results leading:

IC50 (GST tagged PIP4KtypeIIB) | IC50 (GST tagged PIP4KtypeIIA) [nM] | Compound
100 to 1000 nM | 100 to 1000 | O=C1CCCN1c1ccc(-c2cncc(-c3csc4ncccc34)c2)cc1 [Example 292, 1-(4-(5-(thieno[2,3-b]pyridin-3-yl)pyridin-3-yl)phenyl)pyrrolidin-2-one]
1000 to 2500 nM | 2500 to 5000 | CC(C)c1c(-c2cncc(-c3ccc(N4CCCC4=O)cc3)c2)c2cc(C(=O)N(C)C)cnc2n1C [Example 266, 2-isopropyl-N,N,1-trimethyl-3-(5-(4-(2-oxopyrrolidin-1-yl)phenyl)pyridin-3-yl)-1H-pyrrolo[2,3-b]pyridine-5-carboxamide]
10 to 100 nM | 100 to 1000 | O=C(NCCc1nccs1)c1cc2c(-c3cncc(-c4ccc(N5CCCC5=O)cc4)c3)ccnc2[nH]1 [Example 256, 4-(5-(4-(2-oxopyrrolidin-1-yl)phenyl)pyridin-3-yl)-N-(2-(thiazol-2-yl)ethyl)-1H-pyrrolo[2,3-b]pyridine-2-carboxamide]
> 5000 nM | 1000 to 2500 | O=C(N[C@H]1C[C@H](c2ccccc2)C1)c1cc2c(-c3cncc(-c4ccc(N5CCCC5=O)cc4)c3)ccnc2[nH]1 [Example 297, 4-(5-(4-(2-oxopyrrolidin-1-yl)phenyl)pyridin-3-yl)-N-((1r,3r)-3-phenylcyclobutyl)-1H-pyrrolo[2,3-b]pyridine-2-carboxamide]
10 to 100 nM | 100 to 1000 | O=C(NCCc1cncs1)c1cc2c(-c3cncc(-c4ccc(N5CCCC5=O)cc4)c3)ccnc2[nH]1 [Example 298, 4-(5-(4-(2-oxopyrrolidin-1-yl)phenyl)pyridin-3-yl)-N-(2-(thiazol-5-yl)ethyl)-1H-pyrrolo[2,3-b]pyridine-2-carboxamide]
1000 to 2500 nM | 100 to 1000 | CN(C)S(=O)(=O)c1cnc2[nH]cc(-c3cncc(-c4ccc(N5CCCC5=O)cc4)c3)c2c1 [Example 295, N,N-dimethyl-3-(5-(4-(2-oxopyrrolidin-1-yl)phenyl)pyridin-3-yl)-1H-pyrrolo[2,3-b]pyridine-5-sulfonamide]
100 to 1000 nM | 100 to 1000 | CN(C)C(=O)c1cc2c(-c3cncc(-c4ccc(N5CCCC5=O)cc4)c3)cn(C)c2c(=O)n1C [Example 260, N,N,1,6-tetramethyl-7-oxo-3-(5-(4-(2-oxopyrrolidin-1-yl)phenyl)pyridin-3-yl)-6,7-dihydro-1H-pyrrolo[2,3-c]pyridine-5-carboxamide]
100 to 1000 nM | 100 to 1000 | O=C1CCCN1c1ccc(-c2cncc(-n3ccc4ncccc43)c2)cc1 [Example 253, 1-(4-(5-(1H-pyrrolo[3,2-b]pyridin-1-yl)pyridin-3-yl)phenyl)pyrrolidin-2-one]

— US11919902B2, “Aryl-bipyridine amine derivatives as phosphatidylinositol phosphate kinase inhibitors” (HiberCell, Inc., priority 2017, dated 2024)
